Biological target: T1, large-conductance Ca2+-activated K+ channel (BKCa, KCa1.1, KCNMA1, Slo1) (Rattus norvegicus, UniProt Q62976)
T1 construct: native channel in pituitary GH3 cells
Assay: patch clamp: inside-out single-channel recordings (RFM on cytosolic face) and whole-cell IK(Ca) concentration-response
Format: cell-based

T1 sequence (Q62976 whole entry): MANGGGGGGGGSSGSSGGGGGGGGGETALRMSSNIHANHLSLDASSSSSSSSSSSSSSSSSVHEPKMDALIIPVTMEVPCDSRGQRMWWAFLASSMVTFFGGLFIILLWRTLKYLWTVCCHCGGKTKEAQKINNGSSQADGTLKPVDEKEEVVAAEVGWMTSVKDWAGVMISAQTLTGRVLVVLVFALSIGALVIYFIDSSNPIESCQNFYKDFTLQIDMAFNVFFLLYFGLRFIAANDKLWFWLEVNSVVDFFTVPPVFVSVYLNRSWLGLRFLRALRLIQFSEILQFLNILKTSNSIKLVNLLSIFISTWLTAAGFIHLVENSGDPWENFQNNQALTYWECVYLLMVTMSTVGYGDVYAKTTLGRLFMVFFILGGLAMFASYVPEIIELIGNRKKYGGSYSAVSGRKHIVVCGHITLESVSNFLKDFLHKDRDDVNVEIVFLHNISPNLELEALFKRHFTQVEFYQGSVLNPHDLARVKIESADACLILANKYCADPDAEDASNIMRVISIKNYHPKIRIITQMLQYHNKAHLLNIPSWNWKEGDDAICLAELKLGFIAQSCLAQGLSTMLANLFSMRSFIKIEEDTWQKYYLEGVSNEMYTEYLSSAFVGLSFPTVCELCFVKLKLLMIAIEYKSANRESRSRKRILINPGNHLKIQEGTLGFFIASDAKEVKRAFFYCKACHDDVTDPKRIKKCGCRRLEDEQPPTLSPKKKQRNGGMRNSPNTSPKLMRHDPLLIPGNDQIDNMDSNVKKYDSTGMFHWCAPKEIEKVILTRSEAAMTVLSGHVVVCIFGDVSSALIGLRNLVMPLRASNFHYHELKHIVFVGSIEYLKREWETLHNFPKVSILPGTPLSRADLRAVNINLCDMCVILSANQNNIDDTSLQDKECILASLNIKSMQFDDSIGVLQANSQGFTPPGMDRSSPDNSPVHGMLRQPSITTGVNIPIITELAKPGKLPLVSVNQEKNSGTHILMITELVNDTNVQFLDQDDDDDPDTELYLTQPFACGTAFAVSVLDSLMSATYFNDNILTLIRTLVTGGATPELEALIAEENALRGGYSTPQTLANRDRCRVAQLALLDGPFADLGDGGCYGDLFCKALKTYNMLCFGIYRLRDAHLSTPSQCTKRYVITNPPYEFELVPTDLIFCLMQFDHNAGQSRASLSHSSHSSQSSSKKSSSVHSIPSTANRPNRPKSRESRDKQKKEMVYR

## NC(=O)c1cn(Cc2c(F)cccc2F)nn1 [RFM, 1-((2,6-difluorophenyl)methyl)-1H-1,2,3-triazole-4carboxamide]
  EC50: 3.9 µM

Source: article PMC9697614, “Rufinamide, a Triazole-Derived Antiepileptic Drug, Stimulates Ca^2+-Activated K^+ Currents While Inhibiting Voltage-Gated Na^+ Currents” (International Journal of Molecular Sciences, 2022)
